Source: patent publication US20050038070A1, “Asthma and allergic inflammation modulators” (AMGEN INC., priority 2003, published 2005)

target: T1, human CRTH2 (Homo sapiens, UniProt Q9Y5Y4); experiment: Human CRTH2 binding assay (3H-PGD2 binding, 293(124) cells); settings: 3H-PGD2 binding to 293(124) cells stably expressing human CRTH2
T1 construct: Full-length human CRTH2 cDNA was generated by polymerase chain reaction (PCR); expressed in transfected cells; host or cells: 293 cells stably transfected with pHLT124 (pcDNA3.1(+)), G418-selected; named 293(124)
T1 sequence (Q9Y5Y4 1-395): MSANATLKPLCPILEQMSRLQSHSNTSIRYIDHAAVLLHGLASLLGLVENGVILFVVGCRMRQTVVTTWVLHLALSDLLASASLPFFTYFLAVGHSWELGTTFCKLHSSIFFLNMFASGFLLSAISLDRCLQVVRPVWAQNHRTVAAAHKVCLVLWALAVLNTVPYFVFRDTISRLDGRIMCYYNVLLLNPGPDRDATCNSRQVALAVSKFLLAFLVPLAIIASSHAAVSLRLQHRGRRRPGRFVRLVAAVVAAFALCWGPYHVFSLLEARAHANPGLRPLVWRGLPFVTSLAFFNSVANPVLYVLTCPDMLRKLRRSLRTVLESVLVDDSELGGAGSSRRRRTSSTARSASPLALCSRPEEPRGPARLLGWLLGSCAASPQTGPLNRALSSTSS
Experimental: Human CRTH2 Binding Assay
Full-length human CRTH2 cDNA was generated by polymerase chain reaction (PCR) using human genomic DNA as template and subsequently cloned into pcDNA3.1(+) (Invitrogen), generating a CRTH2 expression plasmid pHLT124. The plasmid was transfected into 293 cells, which […] CRTH2, using LipofectAMINETM reagents (Gibco/BRL). G418 ([…]) was added to the culture 48 h after transfection and cells were maintained under selection for 3 weeks to ensure that all surviving cells stably expressed CRTH2. These cells are labeled as 293(124) hereafter.
^3H-PGD2 binding assay was performed using 293(124) cells. In brief, cells were washed and suspended in RPMI containing 0.5% BSA and 20 mM HEPES. Each assay contained 25,000 cells, appropriate amount of test compound when necessary and a mixture of 1 nM ^3H-PGD2 (Amersham Pharmacia Biotech) and 30 nM of unlabeled PGD2 (Cayman Chemicals) in […] final volume. The cell mixture was incubated at room temperature for 2.5 h with shaking and the cells were separated from free ^3H-PGD2 and transferred onto a filter plate using a cell harvester. Radioactivity bound to the cells was measured on a liquid scintillation counter. Nonspecific binding was determined in the presence of […] of unlabeled PGD2.

| IC50 [nM] | Structure (SMILES) |
| --- | --- |
| < 40 | CC(=O)N(c1ccccc1)[C@H]1C[C@@H](C)N(C(=O)c2ccccc2)c2ccccc21 [Compound 3] |
| ≥ 40 | CCCCC(=O)N(c1ccccc1)[C@H]1C[C@@H](C)N(C(=O)c2ccccc2)c2ccccc21 [Compound 4] |
| ≥ 40 | CC(=O)N(c1ccc(Cl)cc1)[C@H]1C[C@@H](C)N(C(=O)c2ccc(Oc3ccccc3)cc2)c2ccccc21 [Compound 9] |
| ≥ 40 | CC(=O)N[C@H]1C[C@@H](C)N(C(=O)c2ccccc2)c2ccccc21 [Compound 12] |
